According to patent US12466821B2 (Novartis AG, priority 2018, dated 2025):

Target: human CMV DNA polymerase UL54 (Human cytomegalovirus (strain AD169) (HHV-5) (Human herpesvirus 5), UniProt P08546)
Assay: CMV polymerase biochemical assay (molecular beacon-based)
Details: not given
Description: (§1) Both human CMV DNA polymerase UL54 and human HSV DNA polymerase UL30 were produced as N-terminal MBP fusion of the full length, wild type recombinant proteins in order to enhance soluble expression in insect cell expression system. The proteins were expressed in sf9 insect cells via baculovirus transduction and cells were harvested after 48 hours. The soluble proteins were purified using the standard Ni-IMAC purification strategy via the N-terminal hexa-Histidine tag, followed by heparin affinity chromatography. Both of the final MBP fusion proteins were more than 90% pure and the yield of UL54 was up to 1.8 mg per liter culture while UL30 was up to 15 mg per liter culture. All purification steps were performed on ice, with buffers chilled on ice and FPLC fraction collectors set at 6° C. […] UL30 protein was stored in buffer containing 20 mM HEPES, pH7.0, 420 mM NaCl, 20% glycerol, 6 mM Imidazole, and 0.8 mM DTT at−80° C.
(§2) DNA polymerase activity was measured using a molecular beacon-based assay, as described in Ma et. al.
(§3) 100 pM CMV polymerase or 625 pM HSV polymerase was added to a buffer containing 20 mM Tris, pH=7.5, 100 mM NaCl, 10 mM MgCl2, 0.01% Tween-20, 0.5 mM EDTA, 10% Sucrose and 1 mM DTT. The inhibitor was pre-incubated with the polymerase for 30 minutes at room temperature. Reactions were initiated by the addition of a mixture containing 1.25 uM dATP, 1.25 uM dCTP, 1.25 uM dTTP, 1.25 uM dGTP, 200 nM Primer B (5′-GAC GGG AAG-3′5′-GAC GGG AAG-3′) and 100 nM molecular beacon (5′-5,6-FAM-CCTCTCCGTGTCTTGTACTTCCCGTCAGAGAGG-BHQ1-3′). For human CMV polymerase the reactions were incubated for 60 minutes at room temperature. For HSV polymerase the reactions were incubated for 20 minutes at room temperature. The reactions were then read on a Perkin-Elmer EnVision 2101 reader (fluorescence) using an excitation of 480 nm and emission of 535 nm. 1050s were determined using an internal Novartis software (Helios).
as §3, with “nm.” for “nm. 1050s were determined using an internal Novartis software (Helios).”

In order of rising IC50:
1. CC(CCO)S(=O)(=O)C1(CN2CCn3c(ccc(C(=O)NCc4ccc(Cl)cc4)c3=O)C2=O)CC1 (stereo not shown) [Example 4, N-(4-chlorobenzyl)-2-((1-((4-hydroxybutan-2-yl)sulfonyl)cyclopropyl)methyl)-1,6-dioxo-2,3,4,6-tetrahydro-1H-pyrido[1,2-a]pyrazine-7-carboxamide]  0.4 nM
2. COC1(S(=O)(=O)C2(CN3CCn4c(ccc(C(=O)NCc5ccc(Cl)cc5)c4=O)C3=O)CC2)CC1 [Example 188]  0.8 nM
3. CN(CCN1CCn2c(c(Br)cc(C(=O)NCc3ccc(Cl)cc3)c2=O)C1=O)S(C)(=O)=O [Example 122, 9-bromo-N-(4-chlorobenzyl)-2-(2-(N-methylmethylsulfonamido)ethyl)-1,6-dioxo-1,3,4,6-tetrahydro-2H-pyrido[1,2-a]pyrazine-7-carboxamide]  350 nM
4. CN1CCn2c(ccc(C(=O)NCc3ccc(Cl)cc3)c2=O)C1=O [Example 114, N-(4-chlorobenzyl)-2-methyl-1,6-dioxo-2,3,4,6-tetrahydro-1H-pyrido[1,2-a]pyrazine-7-carboxamide]  3990 nM

Target: human HSV DNA polymerase UL30 (Human herpesvirus 1 (strain 17) (HHV-1) (Human herpes simplex virus 1), UniProt P04293)
Assay: HSV polymerase biochemical assay (molecular beacon-based)
Details: not given
Description: as §1, §2, §3
as §3, with “nm.” for “nm. 1050s were determined using an internal Novartis software (Helios).”

In order of falling IC50:
1. CN1CCn2c(ccc(C(=O)NCc3ccc(Cl)cc3)c2=O)C1=O [Example 114, N-(4-chlorobenzyl)-2-methyl-1,6-dioxo-2,3,4,6-tetrahydro-1H-pyrido[1,2-a]pyrazine-7-carboxamide]  25000 nM
2. CN(CCN1CCn2c(c(Br)cc(C(=O)NCc3ccc(Cl)cc3)c2=O)C1=O)S(C)(=O)=O [Example 122, 9-bromo-N-(4-chlorobenzyl)-2-(2-(N-methylmethylsulfonamido)ethyl)-1,6-dioxo-1,3,4,6-tetrahydro-2H-pyrido[1,2-a]pyrazine-7-carboxamide]  5050 nM

System: Luciferase-encoding HCMV, AD169 strain
Assay: CMV Luciferase assay (cellular herpesvirus replication)
Type: cell-based
Details: Human betaherpesvirus 5, AD169, read-out: CMV-Luc Cellular EC50
Description: For all viral assays, 10 mM DMSO stock compound solutions were serially diluted in DMSO at 3.16 fold dilutions in 96-well clear round bottom plates. Compounds were then diluted in assay media at 1:20 and subsequently 10 μL of these dilutions were added to cells for final compound concentrations ranging either from 0.0159 μM to 50 μM in 0.5% DMSO/assay media, or from 0.00318 to 10 μM in 0.5% DMSO/assay media.
The assay uses a Luciferase-encoding HCMV. Luciferase is expressed under the control of a late viral gene (pp28) promoter in the AD169 strain, so that expression of the reporter is dependent on viral DNA replication. Compounds that affect any stage from viral entry to DNA replication result in a change in luciferase levels.
Viral replication in the presence or absence of compounds was measured by luciferase activity according to the following procedure: Neo-natal normal human dermal fibroblast cells (NN-NHDF, from ATCC cat #201-010) were seeded at 9,000 cells/well in 96-well white solid bottom plate at 80 uL/well in assay media: 2% FBS, 4 mM GlutaMax® (Invitrogen cat #35050) in DMEM/high glucose/no glutamine/no phenol red media (Invitrogen cat #31053). After 2 hrs at 37° C., 10 uL of compound diluted in assay media or 5% DMSO (final 0.5% DMSO/well) was added and the plates returned to 37° C. One hour later, 10 uL of virus diluted in assay media was added at a final Multiplicity of infection (MOI) of 1. Plates were incubated at 37° C. for 72 hrs. At 72 hours post-infection (hpi), plates were equilibrated to room temperature. After 25 min, 100 uL Renilla-Glo® Luciferase Assay Reagent (Promega cat # E2750) was added to each well and incubated for 10 min. Plates were covered to protect from light. Luminescence was measured on the PHERAstar FS®.
The following controls were included in the data analysis: No virus, no compound (0.5% DMSO)=IC (maximal inhibitory control); Virus, no compound (0.5% DMSO)=NC (neutral control). Data were analyzed using an internal Novartis software (Helios). The means of the controls (NC, IC) were used to normalize the results to a % scale using the formula: % Control=100−(100*(Sample value−NC)/(IC−NC)).
For each compound, the software derived an EC50 using a 4-parameter logistical model.

In order of falling EC50:
1. CS(=O)(=O)CCCN1CCn2c(c(C(F)(F)F)cc(C(=O)NCc3ccc(Cl)cc3)c2=O)C1=O [Example 146, N-(4-chlorobenzyl)-2-(3-(methylsulfonyl)propyl)-1,6-dioxo-9-(trifluoromethyl)-1,3,4,6-tetrahydro-2H-pyrido[1,2-a]pyrazine-7-carboxamide]  47200 nM
2. CS(=O)(=O)CCCN1CCn2c(c(C3CC3)cc(C(=O)NCc3ccc(Cl)cc3)c2=O)C1=O [Example 130]  13300 nM
3. O=C(NCc1ccc(Cl)cc1)c1cc(C(F)F)c2n(c1=O)CCN(CCN1CCCS1(=O)=O)C2=O [Example 144]  10400 nM
4. Cc1cc(C(=O)NCc2ccc(Cl)cc2)c(=O)n2c1C(=O)N(CCC1(S(C)(=O)=O)CC1)CC2 [Example 151]  10000 nM
5. CS(=O)(=O)C1(CCN2CCn3c(c(F)cc(C(=O)NCc4ccc(Cl)cc4)c3=O)C2=O)CC1 [Example 165]  10000 nM
6. CS(=O)(=O)C1(CCN2CCn3c(ccc(C(=O)NCc4ccc(Cl)cc4)c3=O)C2=O)CC1 [Example 170, N-(4-chlorobenzyl)-2-(2-(1-(methylsulfonyl)cyclopropyl)ethyl)-1,6-dioxo-1,3,4,6-tetrahydro-2H-pyrido[1,2-a]pyrazine-7-carboxamide]  9030 nM
7. O=C(NCc1ccc(Cl)cc1)c1ccc2n(c1=O)CCN(CC1(C(=O)N3CCOCC3)CC1)C2=O [Example 211]  7810 nM
8. O=C(NCc1ccc(Cl)cc1)c1ccc2n(c1=O)CCN(CC1(C(=O)N3CCC3)CC1)C2=O [Example 208, 2-((1-(azetidine-1-carbonyl)cyclopropyl)methyl)-N-(4-chlorobenzyl)-1,6-dioxo-1,3,4,6-tetrahydro-2H-pyrido[1,2-a]pyrazine-7-carboxamide]  5180 nM
9. NC1(CN2CCn3c(ccc(C(=O)NCc4ccc(Cl)cc4)c3=O)C2=O)CC1 [Example 197]  4790 nM
10. CCOC(=O)C1(CN2CCn3c(ccc(C(=O)NCc4ccc(Cl)cc4)c3=O)C2=O)CC1 [Example 207, ethyl 1-((7-((4-chlorobenzyl)carbamoyl)-1,6-dioxo-1,3,4,6-tetrahydro-2H-pyrido[1,2-a]pyrazin-2-yl)methyl)cyclopropane-1-carboxylate]  3790 nM
11. CN(CCN1CCn2c(c(F)cc(C(=O)NCc3ccc(Cl)cc3)c2=O)C1=O)S(C)(=O)=O [Example 160, N-(4-chlorobenzyl)-9-fluoro-2-(2-(N-methylmethylsulfonamido)ethyl)-1,6-dioxo-1,3,4,6-tetrahydro-2H-pyrido[1,2-a]pyrazine-7-carboxamide]  3600 nM
12. CN(C)C(=O)C1(CN2CCn3c(ccc(C(=O)NCc4ccc(Cl)cc4)c3=O)C2=O)CC1 [Example 209]  2490 nM
13. CS(=O)(=O)CCN1CCn2c(ccc(C(=O)NCc3ccc(Cl)cc3)c2=O)C1=O [Example 51, N-(4-chlorobenzyl)-2-(2-(methylsulfonyl)ethyl)-1,6-dioxo-2,3,4,6-tetrahydro-1H-pyrido[1,2-a]pyrazine-7-carboxamide]  1870 nM
14. CS(=O)(=O)CC1(CN2CCn3c(c(F)cc(C(=O)NCc4ccc(Cl)cc4)c3=O)C2=O)CC1 [Example 168]  1100 nM
15. O=C(NCc1ccc(Cl)cc1)c1cc(CC2CC2)c2n(c1=O)CCN(CCN1CCCS1(=O)=O)C2=O [Example 133, N-(4-chlorobenzyl)-9-(cyclopropylmethyl)-2-(2-(1,1-dioxidoisothiazolidin-2-yl)ethyl)-1,6-dioxo-1,3,4,6-tetrahydro-2H-pyrido[1,2-a]pyrazine-7-carboxamide]  1020 nM
16. O=C(NCc1ccc(Cl)cc1)c1cc(C2CC2)c2n(c1=O)CCN(CCN1CCCS1(=O)=O)C2=O [Example 131]  949 nM
17. CCc1cc(C(=O)NCc2ccc(Cl)cc2)c(=O)n2c1C(=O)N(CCN1CCCS1(=O)=O)CC2 [Example 135]  749 nM
18. Cc1cc(C(=O)NCc2ccc(Cl)cc2)c(=O)n2c1C(=O)N(CC1(CS(C)(=O)=O)CC1)CC2 [Example 154]  662 nM
19. N#Cc1ccc(CNC(=O)c2ccc3n(c2=O)CCN(CC2(S(=O)(=O)CCCO)CC2)C3=O)cc1F [Example 23]  452 nM
20. N#CCS(=O)(=O)C1(CN2CCn3c(ccc(C(=O)NCc4ccc(Cl)cc4)c3=O)C2=O)CC1 [Example 108-1, N-(4-Chlorobenzyl)-2-((1-((cyanomethyl)sulfonyl)cyclopropyl)methyl)-1,6-dioxo-2,3,4,6-tetrahydro-1H-pyrido[1,2-a]pyrazine-7-carboxamide]  228 nM
21. Cc1cc(C(=O)NCc2ccc(Cl)cc2)c(=O)n2c1C(=O)N(CC1(N3CCCS3(=O)=O)CC1)CC2 [Example 150]  67.7 nM
22. CS(=O)(=O)C1(CN2CCn3c(c(F)cc(C(=O)NCc4ccc(Cl)cc4)c3=O)C2=O)CC1 [Example 167]  57.3 nM
23. CC(CCO)S(=O)(=O)C1(CN2CCn3c(ccc(C(=O)NCc4ccc(Cl)cc4)c3=O)C2=O)CC1 (stereo not shown) [Example 4, N-(4-chlorobenzyl)-2-((1-((4-hydroxybutan-2-yl)sulfonyl)cyclopropyl)methyl)-1,6-dioxo-2,3,4,6-tetrahydro-1H-pyrido[1,2-a]pyrazine-7-carboxamide]  40.4 nM
24. CN(C)S(=O)(=O)C1(CN2CCn3c(ccc(C(=O)NCc4ccc(C#N)cc4)c3=O)C2=O)CC1 [Example 90-2]  34 nM
25. COC1(S(=O)(=O)C2(CN3CCn4c(ccc(C(=O)NCc5ccc(Cl)cc5)c4=O)C3=O)CC2)CC1 [Example 188]  11.6 nM
